“Also recorded” adds a separate entry of the source.
Assays:
[1] = test system: primary human renal proximal tubule epithelial cells; experiment: Cell cycle analysis (propidium iodide staining, flow cytometry); assay type: cell-based; details: 0, 10 nM, 30 nM, 100 nM, 300 nM or 1 μM for 16 hours
Procedure: Representative histograms of cell cycle analysis of primary human renal proximal tubule epithelial cells treated with varying concentrations (0 nM, 10 nM, 30 nM, 100 nM, 300 nM, or 1 μM) of 6-acetyl-8-cyclopentyl-5-methyl-2-(5-piperazin-1-yl-pyridin-2-ylamino)-8H-pyrido-[2,3-d]pyrimidin-7-one (PD0332991) for 16 hours. Cells were harvested, fixed, stained, and analyzed by flow cytometry. Data was fitted using Mod-Fit™ software from Verity (Verity Software House, Topsham, Me., United States of America). […] Cell cycle analysis of primary human renal proximal tubule epithelial cells treated with varying concentrations (0 nM, 10 nM, 30 nM, 100 nM, 300 nM, or 1 μM) of 6-acetyl-8-cyclopentyl-5-methyl-2-(5-piperazin-1-yl-pyridin-2-ylamino)-8H-pyrido-[2,3-d]pyrimidin-7-one (PD0332991) for 16 hours. Cells were harvested, fixed, stained, and analyzed by flow cytometry. Data was fitted using Mod-Fit™ software from Verity (Verity Software House, Topsham, Me., United States of America). […] Samples were processed and the DNA was stained with propidium iodide (PI) solution and analyzed by flow cytometry. FCS files from flow cytometer were further analyzed using cell cycle analysis software ModFit™ from Verity (Verity Software House, Topsham, Me., United States of America), where cell cycle fractions were calculated as a percentage of the whole population.

[2] = test system: primary human renal proximal tubule epithelial cells; experiment: Cell proliferation, CellTiter-Glo; assay type: cell-based; details: 10 nM to 3 μM, 72 hours post treatment
Procedure: Cells were treated with varying concentrations (0 nM, 10 nM, 30 nM, 100 nM, 300 nM, or 1 μM) of 6-acetyl-8-cyclopentyl-5-methyl-2-(5-piperazin-1-yl-pyridin-2-ylamino)-8H-pyrido-[2,3-d]pyrimidin-7-one (PD0332991) for 72 hours. Following incubation, cell proliferation was quantified using CellTiter-Glo® (Promega, Madison, Wis., United States of America). Data represent the mean of four replicates (relative light units, RLU)+/−standard deviation. Inhibition of CDK4/6 blocks the proliferation of normal human primary renal proximal tubule epithelial cells. These cells were seeded at an appropriate density in 96 well plates and incubated for 24 hours at 37° C. in a humidified incubator at 5% CO2. Cells were then exposed to a potent and selective CDK4/6 inhibitor, in this case PD0332991, across a broad dose range 24 hours later. The dose range explored is 0, 10 nM, 30 nM, 100 nM, 300 nM, 1 μM or 3 μM PD0332991. Seventy-two hours post exposure, the CDK4/6 inhibited cells were treated with CellTiter-Glo® (Promega, Madison, Wis., United States of America) using manufacturer's specifications. The plate was read in luminometer at 1 second/well. Results were placed in Microsoft Excel and analyzed.

renal epithelial cells = experiment: BrdU incorporation into renal epithelial cells after ischemia reperfusion injury; assay type: in vivo, mice
Procedure: FIG. 3A is a schematic diagram showing a dosing schedule for studies of 5-bromo-2-deoxyuridine (BrdU) incorporation into epithelial cells following ischemic reperfusion injury after a single dosing of a CDK4/6 inhibitor. Mice were treated with 6-acetyl-8-cyclopentyl-5-methyl-2-(5-piperazin-1-yl-pyridin-2-ylamino)-8H-pyrido-[2,3-d]pyrimidin-7-one (PD0332991; 150 mg/kg) or vehicle (sodium lactate buffer) by oral gavage one hour before ischemic reperfusion injury. BrdU (100 mg/kg) was administered via i.p. injection 21 hours after injury. Mice were sacrificed 3 hours after the BrdU injection, and BrdU incorporation into the renal epithelial cells was quantified. […] Three hours following the second injection of BrdU, the mice were sacrificed and BrdU incorporation into the renal epithelial cells was quantified. […] Kidney cell proliferation following ischemia reperfusion injury (IRI) was monitored (based on BrdU incorporation in renal epithelial cells) following a one time, pre-IRI PD0332991 or vehicle (sodium lactate buffer) dosing as shown in FIG. 3A and following a two time (once pre-IRI and once post-IRI) PD0332991 or vehicle dosing as shown in FIG. 3B. […] BrdU positive (BrdU(+)) cells were quantified visually by counting the number of BrdU(+) cells in a field of kidney epithelial cells under magnification. […]

[3] = Serum creatinine after bilateral ischemia reperfusion injury; assay type: in vivo, mice; details: 150 mg/kg oral gavage 1 hour prior to bilateral IRI; N=9; vehicle group 2.27
Procedure: PD0332991 was dissolved in 50 mM sodium lactate buffer (pH 4.0) to a final concentration of 15 mg/mL. Mice were treated with a 150 mg/kg dose of PD0332991, or vehicle, 1 hour prior to ischemia reperfusion surgery by oral gavage. 8 week old male mice were anesthetized with pentobarbital sodium (60 mg/kg body weight, intraperitoneally) prior to surgery. Body temperatures were controlled at 36.5° C.-37.5° C. throughout the procedure. Bilateral flank incisions into the peritoneum allowed access to both kidneys. Kidneys were exposed and ischemia was induced by simultaneously clamping the renal pedicle of both kidneys with nontraumatic microaneurysm clamps (Roboz, Rockville, Md.). Clamped kidneys were placed back into the peritoneal cavity for 28 minutes, and clamps were then removed resulting in reperfusion injury. The flank incisions were closed with wound clips and the mice were allowed to recover in their home cages. […] Serum creatinine was measured by the Beckman Creatinine Analyzer 2, which utilizes a 10 mM picric acid solution mixed with a buffer containing 10 mM sodium borate, 240 mM sodium hydroxide, and 10 mM sodium dodecyl sulfate (SDS). Serum creatinine is measured against a creatinine standard and recorded as milligrams per deciliter.

CC(=O)c1c(C)c2cnc(Nc3ccc(N4CCNCC4)cn3)nc2n(C2CCCC2)c1=O [PD0332991, 6-acetyl-8-cyclopentyl-5-methyl-2-(5-piperazin-1-yl-pyridin-2-ylamino)-8H-pyrido-[2,3-d]-pyrimidin-7-one]
G1 cell cycle arrest [1]: induces a G1 arrest; also recorded: “clean” G1-arrest without evidence of cytotoxicity
cell cycle fractions (G0/G1, G2/M, S-phase) [1]: dose dependent increase in the G0/G1 fraction of the cell cycle was observed with a consummate decrease in both G2/M and S-phase fractions
cell proliferation (relative light units) compared to DMSO control [2]: clear dose dependent inhibition of cell proliferation; also recorded: blocks proliferation
BrdU(+) renal epithelial cells 24 hours after injury, versus vehicle (renal epithelial cells; 150 mg/kg oral gavage one time, 1 hour before IRI (FIG. 3A schedule)): significantly less BrdU(+) cells; also recorded: prevents epithelial cells from entering S-phase
BrdU incorporation in renal epithelial cells 48 hours after injury, versus vehicle (renal epithelial cells; 150 mg/kg oral gavage two doses, once pre-IRI and once post-IRI (FIG. 3B schedule)): less BrdU incorporation; also recorded: prevents epithelial cells from entering S-phase
average serum creatinine 24 hours after surgery [3]: 1.74 mg/dL
